Data on four compounds can be found in patent US20020173036A1, “Cell line and method of making and using same” (priority 2001, published 2002).

One assay relates to MARCKS. The experiment in a line: MARCKS immunostaining (subcellular localization). In kind it is cell-based, human. As to conditions: 90 min at 37° C. As for the experimental part: (§1) Cells were treated as described for the growth culve for 90 min at 37° C. Prior to MARCKS staining some cells were treated with 14 nM bisindolylmaleimide (Calbiochem, La Jolla, Calif.) for 90 min at 37° C. in order to down-regulate PKC isoforms. Cells were immunostained for PKC-α using an immunofluorescent assay kit and instructions from Research and Diagnostics (Berkley, Calif.) as described previously by Carter, et al., 1998. For MARCKS staining, cells were fixed and permeabilized as described for F-actin visualization and exposed to an anti-MARCKS mouse monoclonal IgG antibody (Upstate Biotechnology, Lake Placid, N.Y.) diluted 1:400 in 1% Bovine Serum Albumin and 0.5% nonfat dry milk (Carnation) in PBS for 1 hr at 37° C. […] Cells were rinsed, mounted and observed as described for actin staining.

In assay [1] the target is T1, PKC-α (Homo sapiens, UniProt P17252).
T1 construct: Cytosolic and particulate fractions were prepared from CAC-1 cells and 30 μg of protein/lane was applied to SDS/PAGE and PKC-α detected by immunoblotting; endogenous in cells
Kind of assay: PKC-α immunostaining (subcellular localization). In kind it is cell-based. The note with it: 1 μM, 90 min at 37° C. As for the experimental part:
as §1

In assay [2] the test system is CAC-1 cells. Kind of assay: Cell detachment assay. Type of assay: cell-based, human. The note with it: 1 μM, 24 hrs at 37° C. The protocol: CAC-1 cells were plated onto 35 mm plastic tissue culture dishes at 100,000 cells per dish and allowed to attach for 7 days. For analysis of the retinoic acid effects on cell attachment, cell detachment assays were performed using the methods of Guo, et al., 1995. Cells were exposed to media alone (controls), 1 μM 13-cis retinoic acid, […] retinoic acid or corresponding doses of ethanol alone in culture media alone (vehicle control) for 24 hrs at 37° C. prior to cell counting. The assays were performed in duplicate. Cells were rinsed twice with sterile HBSS and exposed to 0.5% trypsin/EDTA (Gibco, BRL) for 10 min with constant agitation on a rocker set at 120 rpm's. The media containing the detached cells was collected. Detached cells from each dish were counted using a hemacytometer and the mean calculated and graphed using Cricket Graph. Statistics were performed using StatMost, (DataMost Corporation, Sandy, Utah). Statistical analysis was performed using one way analysis of variance-(ANOVA).

For assay [3], the target named is T1, PKC-α. Kind of assay: PKC-α Western blot of cytosolic and particulate fractions. Type of assay: cell-based. As to conditions: CAC-1 cells; for amount of PKC-α in the cytosolic fraction / amount of PKC-α in the particulate fraction: 1 μM, 90 min. The protocol:
Confluent 100 mm dishes of CAC-1 cells in the exponential phase of growth (70-80% maximum density) were treated for 90 min with media alone or 1 μM doses of all-trans or 13-cis retinoic acid, corresponding amounts of ethanol (vehcile control) or with TPA for 20 min to activate PKC-α. Cytosolic and particulate fractions of cells were isolated as described previously (Carter, et al., 1998) and changes in PKC-α were analyzed by Western blot analysis using methods described previously and a primary antibody from Transduction Laboratories (Carter, et al., 1998).
On the technique in general: In western blotting, separated proteins are transferred to a membrane and probed.

Assay [4] has as its system CAC-1 cells. Kind of assay: Retinoic acid treatment and F-actin staining with cell size measurement. As to conditions: 1 μM, 90 min at 37° C.; for mean cell size relative to cells only exposed to media or ethanol: 25 cells per group; for cell enlargement and actin filament reorganization (F-actin staining): CAC-1 cells at passage 12.
Another assay deals with hematopoietic cells. As to conditions: cited from earlier work.

Take `CC1=C(/C=C/C(C)=C/C=C/C(C)=C\C(=O)O)C(C)(C)CCC1` [13-cis retinoic acid]: the MARCKS localization result in the assay with MARCKS (1 μM) is “MARCKS localized to the plasma membrane”. Besides, the PKC-α localization result on PKC-α [1] is “localize exclusively to the cytoplasm occurring predominantly in perinuclear regions”. In addition, in the assay on CAC-1 cells [2], the “decrease in cell detachment compared to controls” value was “around 40%”. For the same compound, at PKC-α [3], the “amount of PKC-α in the cytosolic fraction” value is reported as “slight increase” and the “amount of PKC-α in the particulate fraction” value is given as “decrease”. Moreover, in the assay on CAC-1 cells [4], the “mean cell size relative to cells only exposed to media or ethanol” value is recorded as “twice the size”; the “cell enlargement and actin filament reorganization (F-actin staining)” value is “cells enlarged and actin filaments were apparent”.

For `CCCCCCCCCCCCCC(=O)O[C@@H]1[C@@H](C)[C@@]2(O)[C@@H](C=C(CO)C[C@]3(O)C(=O)C(C)=C[C@@H]23)[C@@H]2C(C)(C)[C@]12OC(C)=O` [TPA, 12-O-tetradecanoylphorbol-13-acetate], in the assay with hematopoietic cells, the “decrease in mean F-actin content” value is given as 32%. On PKC-α [3] (100 nM TPA for 20 min), the “PKC-α distribution between cytosolic and particulate fractions” value is “most of the PKC-α was present in the particulate fraction”.

For `CC1=C(/C=C/C(C)=C/C=C/C(C)=C/C(=O)O)C(C)(C)CCC1` [all-trans retinoic acid], the MARCKS localization entry in the assay on MARCKS (1 μM) was “MARCKS localized to the plasma membrane”. Further, the PKC-α localization result on PKC-α [1] is “localize exclusively to the cytoplasm occurring predominantly in perinuclear regions”. In the assay with CAC-1 cells [2], the “decrease in cell detachment compared to controls” value is reported as “around 40%”. Moreover, on PKC-α [3], the “amount of PKC-α in the cytosolic fraction” value is on record as “slight increase” and the “amount of PKC-α in the particulate fraction” value is on record as “decrease”. Also, in the assay with CAC-1 cells [4], the “mean cell size relative to cells only exposed to media or ethanol” value is on record as “twice the size”; the “cell enlargement and actin filament reorganization (F-actin staining)” value was “cells also enlarged and actin filaments were prominent throughout the cells”.

With bisindolylmaleimide, in the assay on MARCKS (14 nM), the MARCKS localization result is listed as “MARCKS staining was prominent in the plasma membrane”.
